Here are results for seven compounds from PMC10453766, “Comparison of the Effects of DOTA and NOTA Chelators on ^64Cu-Cudotadipep and ^64Cu-Cunotadipep for Prostate Cancer” (Diagnostics, 2023).

The subject of one data set is PC3-PIP (PSMA+) cells. The experiment in a line: Cell uptake in PC3-PIP cells. The conditions noted are these: as given in the abstract. The data set is classed as cell-based, human. The method, then:
PC3-PIP or PC3-flu cells (1 × 10^6) were mixed with 3.7 MBq (100 μCi) of ^64Cu-cudotadipep or ^64Cu-cunotadipep and incubated at 37 °C and 5% CO2 for 2 h. Following incubation, the cells were washed with PBS twice and collected via centrifugation (2000 rpm, 5 min). Radioactivity was measured using 2480 WIZARD2 gamma counter (Perkin Elmer, Waltham, MA, USA). Percent (%) uptake was calculated using the ratio between the radioactivity of the cells and treated radioactivity.

Data set [1] concerns the target T1, PSMA (Homo sapiens, UniProt Q04609).
T1 construct: host or cells: 22Rv1 human prostate cancer cells (intact cells)
The experiment in a line: Competitive binding assay against ^125I-MIP-1095 in 22Rv1 cells. The conditions noted are these: for Ki: 22Rv1 cells, converted from IC50 with the Cheng–Prusoff equation using Kd of MIP-1095; for IC50: cold forms, PSMA-expressing 22Rv1 cells, 1 h, 37 °C. How it is done: The 22Rv1 cells (1 × 10^6 cells/well, 48-well plate) were washed with phosphate-buffered saline (PBS), and the culture medium was substituted with RPMI-1640 medium containing 1% bovine serum albumin. The cells were incubated for 1 h at 37 °C and 5% CO2 with unlabeled cudotadipep or cunotadipep (1.00 × 10^−4–1.00 × 10^−10 M) or 0.09–0.1 nM ^125I-(S)-2-(3-((S)-1-carboxy-5-(3-(4-iodophenyl)ureido)pentyl)ureido)pentanedioic acid (^125I-MIP-1095). The cells were washed twice in cold PBS and collected via centrifugation (2000 rpm, 5 min). Radioactivity was measured using 2480 WIZARD2 gamma counter (Perkin Elmer, Waltham, MA, USA). IC50 was calculated using Microsoft Excel and converted to Ki, using the Cheng–Prusoff equation [21].

Data set [2] deals with T1, PSMA. As to the kind of experiment: Saturation binding assay of ^125I-MIP-1095 in 22Rv1 cells. The conditions noted are these: saturation binding test. How it is done:
The dissociation constant (Kd) of MIP-1095 was determined via a saturation binding assay. The saturation binding assay was performed as performed in a previous study. Briefly, the 22Rv1 cells (2 × 10^5) were aliquoted into wells in a 24-well plate and incubated with 0.7–17.5 nM (0.0037–0.1332 MBq) of ^125I-MIP-1095 at 37 °C for 1 h. To prevent nonspecific binding, 500 μM unlabeled MIP was added. Radioactivity was measured using 2480 WIZARD2 gamma counter (Perkin Elmer, Waltham, MA, USA). Statistical analysis was performed using Microsoft Excel.

The conditions of data set [3]: ^18F-labeled PSMA compounds; cited from earlier work.

T1 sequence (Q04609 whole entry): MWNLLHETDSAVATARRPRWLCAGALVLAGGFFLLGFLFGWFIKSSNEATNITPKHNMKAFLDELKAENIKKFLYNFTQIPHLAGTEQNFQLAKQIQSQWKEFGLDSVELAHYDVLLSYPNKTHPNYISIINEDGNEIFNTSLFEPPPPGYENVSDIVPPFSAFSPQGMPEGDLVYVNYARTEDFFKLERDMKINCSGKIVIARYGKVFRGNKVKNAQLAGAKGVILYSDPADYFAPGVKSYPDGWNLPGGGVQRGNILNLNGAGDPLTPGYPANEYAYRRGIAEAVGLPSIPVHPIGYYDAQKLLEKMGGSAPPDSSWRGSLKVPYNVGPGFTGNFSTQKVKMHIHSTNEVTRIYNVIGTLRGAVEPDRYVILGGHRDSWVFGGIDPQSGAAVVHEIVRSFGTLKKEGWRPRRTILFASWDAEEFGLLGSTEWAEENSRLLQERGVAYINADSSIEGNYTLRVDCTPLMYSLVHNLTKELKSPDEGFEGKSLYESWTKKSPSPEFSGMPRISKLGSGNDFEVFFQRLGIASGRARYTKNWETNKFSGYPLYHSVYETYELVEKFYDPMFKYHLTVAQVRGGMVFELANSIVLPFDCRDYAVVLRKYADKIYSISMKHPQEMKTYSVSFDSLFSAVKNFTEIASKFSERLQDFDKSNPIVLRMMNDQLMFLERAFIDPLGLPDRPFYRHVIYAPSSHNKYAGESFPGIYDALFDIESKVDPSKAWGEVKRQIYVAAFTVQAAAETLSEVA

The compound `O=C([O-])CN1CCN(CC(=O)[O-])CCN(CC(=O)N[C@@H](CCCCNC(=O)CCCc2ccc(I)cc2)C(=O)NCCOCCOCC(=O)N(CCCC[C@H](NC(=O)N[C@@H](CCC(=O)O)C(=O)O)C(=O)O)CC(=O)O)CCN(CC(=O)[O-])CC1.[Cu+2]` [Cu-cudotadipep] gave a cellular uptake in the data set on PC3-PIP (PSMA+) cells of 2.93 ± 0.06 %/1 × 10^6 cells. For the same compound, at PSMA [1], affinity was put at a Ki of 6.75 ± 0.42 nM and the IC50 (usually the concentration that gives 50% inhibition) is 16.8 ± 1.05 nM. `O=C([O-])CN1CCN(CC(=O)[O-])CCN(CC(=O)N[C@@H](CCCCNC(=O)CCCc2ccc(I)cc2)C(=O)NCCOCCOCC(=O)N(CCCC[C@H](NC(=O)N[C@@H](CCC(=O)O)C(=O)O)C(=O)O)CC(=O)O)CC1.[Cu+2]` [Cu-cunotadipep] gave a cellular uptake with PC3-PIP (PSMA+) cells of 6.02 ± 0.05 %/1 × 10^6 cells. At PSMA [1], the Ki (as a rule, a dissociation constant, usually derived from enzyme kinetics or from competition with a known ligand) was found to be 2.17 ± 0.25 nM and the IC50 turned out to be 5.42 ± 0.64 nM.

As for `O=C(O)CC[C@H](NC(=O)N[C@@H](CCCCNC(=O)Nc1ccc(I)cc1)C(=O)O)C(=O)O` [MIP-1095, ^125I-(S)-2-(3-((S)-1-carboxy-5-(3-(4-iodophenyl)ureido)pentyl)ureido)pentanedioic acid], on PSMA [2], the Bmax is listed as 0.25 nM and the Kd (usually the equilibrium constant for the complex coming apart) is 0.13 nM. For the compound `O=C(O)CC[C@H](NP(=O)(O)OCCC[C@H](NC(=O)CC[C@H](NC(=O)CCCCCNC(=O)c1ccc([18F])cc1)C(=O)O)C(=O)O)C(=O)O` [^18F-CTT1057], the effective dose in data set [3] was 2.28 × 10^−2 mSv/MBq.

In the case of `O=C(O)CC[C@H](NC(=O)N[C@@H](CCCCNC(=O)c1ccc([18F])nc1)C(=O)O)C(=O)O` [^18F-DCFPyL], in data set [3], the effective dose is on record as 1.65 × 10^−2 mSv/MBq. Regarding `O=C([O-])CN(CCN(CC(=O)[O-])Cc1cc(CCC(=O)NCCCCCC(=O)NCCCC[C@H](NC(=O)N[C@@H](CCC(=O)O)C(=O)O)C(=O)O)ccc1O)Cc1cc(CCC(=O)O)ccc1O.[18F-].[Al+3]` [^18F-PSMA-11], the effective dose in data set [3] was 1.28 × 10^−2 mSv/MBq. For the compound `O=C(O)CC[C@H](NC(=O)N[C@@H](CCCCNC(=O)[C@H](Cc1ccc2ccccc2c1)NC(=O)c1ccc(CNC(=O)[C@H](CCC(=O)O)NC(=O)[C@H](CCC(=O)O)NC(=O)c2ccc([18F])nc2)cc1)C(=O)O)C(=O)O` [^18F-PSMA-1007], in data set [3], the effective dose is reported as 2.20 × 10^−2 mSv/MBq.
